Measurements: patent EP4800018A1, “PAN-KRAS INHIBITOR AND USE THEREOF IN MEDICINES” (Betta Pharmaceuticals Co., Ltd., priority 2023, dated 2025)
pIC50: −log10 of the molar value.

Tests used:
Format in all cases: cell-based
[1] = system: KRAS-G12D mutant tumor cells AGS; test: Cell Proliferation Inhibition Assay (AGS), Cell-titer GLO, 96 h; conditions: Homo sapiens, AGS, 96 h, AGS cells, 96 h incubation, Cell-titer GLO; read-out: AGS(G12D)
Protocol: KRAS-G12D mutant tumor cells AGS were seeded in low-attachment 96-well plates at a cell density of 1×10^3 cells/well and cultured overnight in a cell culture incubator. […] After incubation at 37°C for 96 h, 50 µL of Cell-titer GLO working solution was added to each well, mixed by shaking, incubated at room temperature for 10 min, and the Luminescence value was read on a multi-function microplate reader. The luminescence data were calculated and converted into inhibition percent. The inhibition percent of cell proliferation was calculated according to the following formula: Inhibition Percent = (MaxValue−MeasuredValue)/(MaxValue−Blank) × 100% [formula] […] Curve fitting was performed using GraphPad Prism software to obtain IC50 values, see Table 1.

[2] = system: KRAS-G12V mutant tumor cells SW620; test: Cell Proliferation Inhibition Assay (SW620), Cell-titer GLO, 96 h; conditions: Homo sapiens, SW-620, 96 h, SW620 cells, 96 h incubation, Cell-titer GLO; read-out: SW620(G12V)
Protocol: KRAS-G12V mutant tumor cells SW620 were seeded in low-attachment 96-well plates at a cell density of 1×10^3 cells/well and cultured overnight in a cell culture incubator. After the cells adhered, the test compounds were added to the 96-well plates at final concentrations of 10000, 2000, 400, 80, 16, 3.2, 0.64, 0.13, 0.03, 0 nM (final concentration of DMSO was 0.5% for all). After incubation at 37°C for 96 h, 50 µL of Cell-titer GLO working solution was added to each well, mixed by shaking, incubated at room temperature for 10 min, and the Luminescence value was read on a multi-function microplate reader. The luminescence data were calculated and converted into inhibition percent. The inhibition percent of cell proliferation was calculated according to the following formula: Inhibition Percent = (MaxValue−MeasuredValue)/(MaxValue−Blank) × 100% [formula]
("Max Value" comes from the 0.5% DMSO control well, "Blank" comes from the blank control well, and "Measured Value" comes from the compound-treated well).
Curve fitting was performed using GraphPad Prism software to obtain IC50 values, see Table 1.

KRAS G12D-cRAF = target: T1, KRAS G12D-cRAF (Homo sapiens, UniProt P01116, G12D); test: Cellular KRAS G12D-cRAF Binding Inhibition Assay (NanoBRET, AD293 stable cells); conditions: 3 h incubation, read-out: NanoBRET KRAS G12D
T1 construct: expressed in transfected cells
T1 sequence (P01116 1-188 isoform P01116-2 G12D): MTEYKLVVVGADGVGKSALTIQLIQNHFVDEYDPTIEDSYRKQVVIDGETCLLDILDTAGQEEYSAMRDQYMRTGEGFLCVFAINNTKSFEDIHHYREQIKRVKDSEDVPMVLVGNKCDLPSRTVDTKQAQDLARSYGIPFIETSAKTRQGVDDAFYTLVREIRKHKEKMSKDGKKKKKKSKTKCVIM
Protocol: (§1) NanoLuc® luciferase was used as the energy donor, and NanoBRET™ 618 fluorescent ligand labeled with the HaloTag® protein was used as the energy acceptor to detect protein-protein interactions in living cells. AD293 stable cells transfected with KRAS G12D-NanoLuc® luciferase and cRAF RBD-HaloTag® tag protein were seeded in 96-well plates at a cell density of 1×10^4 cells/well. Except for wells with medium added as a blank control, NanoBRET™ 618 fluorescent ligand was added to all other wells, and the plates were cultured overnight in a cell culture incubator. […] The luminescence data were calculated and converted into inhibition percent. The inhibition percent of KRAS G12D-cRAF binding was calculated according to the following formula: Inhibition Percent = (MaxValue−MeasuredValue)/(MaxValue−Blank) × 100% [formula] […] Curve fitting was performed using GraphPad Prism software to obtain IC50 values, see Table 1.

KRAS G12V-cRAF = target: T2, KRAS G12V-cRAF (Homo sapiens, UniProt P01116, G12V); test: Cellular KRAS G12V-cRAF Binding Inhibition Assay (NanoBRET, AD293 stable cells); conditions: 3 h incubation, read-out: NanoBRET KRAS G12V
T2 construct: expressed in transfected cells
T2 sequence (P01116 1-188 isoform P01116-2 G12V): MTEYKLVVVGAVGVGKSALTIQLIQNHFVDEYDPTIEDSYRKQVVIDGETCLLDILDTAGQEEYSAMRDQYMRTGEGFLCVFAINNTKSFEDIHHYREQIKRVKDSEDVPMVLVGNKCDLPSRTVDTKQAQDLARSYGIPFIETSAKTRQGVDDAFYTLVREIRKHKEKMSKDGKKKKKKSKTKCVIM
Protocol: as §1, with “AD293 stable cells transfected with KRAS G12D-NanoLuc® luciferase and cRAF RBD-HaloTag® tag protein were seeded in 96-well plates at a cell density of 1×10^4 cells/well.” left out, “G12V-cRAF” for “G12D-cRAF”

SMILES	pIC50 [1]	pIC50 [2]	pIC50 (KRAS G12D-cRAF)	pIC50 (KRAS G12V-cRAF)
CC1OCCCn2c(c3c4cc(ccc42)-c2csc(n2)CC(NC(=O)C24CC(C)(C2)C4)C(=O)N2CCCC(N2)C(=O)OCC(C)(C)C3)-c2cc(N3CCN(C4CC4)CC3)cnc21 [Example 40, N-((1^5S,6^3S,4S,Z)-1^2-(4-cyclopropylpiperazin-1-yl)-1^5,10,10-trimethyl-5,7-dioxo-1^8,1^9,6^1,6^2,6^3,6 ^4,6^5,6^6-octahydro-1^5H,1^7H-8-oxa-1(13,15)-pyrido[3',2':7,8][1,5]oxazonino[5,6-a]indola-2(4,2)-thiazola-6(1,3)-pyridazinacycloundecaphane-4-yl)-3-methylbicyclo[1.1.1]pentane-1-carboxamide]	7.65	8.37	7.80	7.21
CC1OCCCn2c(c3c4cc(ccc42)-c2csc(n2)CC(NC(=O)C24CC(C)(C2)C4)C(=O)N2CCCC(N2)C(=O)OCC(C)(C)C3)-c2cc(N3CCN(C)CC3)cnc21 [Example 80, 3-methyl-N-((1^53 ^3S,4S,Z)-1^5,10,10-trimethyl-1^2-(4-methylpiperazin-1-yl)-5,7-dioxo-1^8,1^9,6^1,6^2 ,6^3,6^4,6^5,^6-octahydro-1^5H,1^7H-8-oxa-1(13,15)-pyrido[3',2':7,8][1,5]oxazonino[5,6-a]indola-2(4, 2)-thiazola-6(1,3)-pyridazinacycloundecaphane-4-yl)bicyclo[1.1.1]pentane-1-carboxamide]	8.75	9.52	8.24	7.67
CC1OCCCn2c(c3c4cc(ccc42)-c2csc(n2)CC(NC(=O)C2CC2C(F)F)C(=O)N2CCCC(N2)C(=O)OCC(C)(C)C3)-c2cc(N3CCN(C4CC4)CC3)cnc21 [Example 85, (1S,2S)-N-((1^5S,6^3S,4S,Z)-1^2-(4-cyclopropylpiperazin-1-yl)-15,10,10-trimethyl-5,7-dioxo-1^8,1^9,6 ,6^2,6^3,6^4,6^5,6^6-octahydro-1^5H,1^7H-8-oxa-1(13,15)-pyrido[3',2':7,8][1,5]oxazonino[5,6-a]indola-2(4,2)-thiazola-6(1,3)-pyridazinacycloundecaphane-4-yl)-2-(difluoromethyl)cyclopropane-1-car boxamide]	8.43	9.20	8.25	7.70
CC1OCCCn2c(c3c4cc(ccc42)-c2csc(n2)CC(NC(=O)C2CC2C(F)F)C(=O)N2CCCC(N2)C(=O)OCC(C)(C)C3)-c2cc(N3CCN(C(C)C)CC3)cnc21 [Example 86, (1S,2S)-2-(difluoromethyl)-N-((1^5S,6^3S,4S,Z)-1^2-(4-isopropylpiperazin-1-yl)-1^5,10,10-trimethyl-5,7-dioxo-1^8,1^9,6^1,6^2,6^3,6^4,6^5,6^6-octahydro-1^5H,1^7H-8-oxa-1(13,15)-pyrido[3',2':7,8][1,5]oxazonino[5,6-a]indola-2(4,2)-thiazola-6(1,3)-pyridazinacycloundecaphane-4-yl)cyclopropane-1-carbox amide]	8.92	9.77	8.66	7.96
CC1OCCCn2c(c3c4cc(ccc42)-c2csc(n2)CC(NC(=O)C2CC2C(F)F)C(=O)N2CCCC(N2)C(=O)OCC(C)(C)C3)-c2cc(N(C)CCN(C)C)cnc21 [Example 87, (1S,2S)-2-(difluoromethyl)-N-((1^5S,6^3S,4S,Z)-1^2-((2-(dimethylamino)ethyl)(methyl)amino)-1^5,1 0,10-trimethyl-5,7-dioxo-1^8,1^9,6^1,6^2,6^3,6^4,6^5,6^6-octahydro-1^5H,1^7H-8-oxa-l(13,15)-pyrido[3',2':7 ,8][1,5]oxazonino[5,6-a]indola-2(4,2)-thiazola-6(1,3)-pyridazinacycloundecaphane-4-yl)cyclopr opane-1-carboxamide]	8.08	8.56	7.41	6.74
[2H]C([2H])([2H])N1CCN(c2cnc3c(c2)-c2c4c5cc(ccc5n2CCCOC3C)-c2csc(n2)CC(NC(=O)C2CC2C(F)F)C(=O)N2CCCC(N2)C(=O)OCC(C)(C)C4)CC1 [Example 91, (1S,2S)-2-(difluoromethyl)-N-((1^5S,6^3S,4S,Z)-1^5,10,10-trimethyl-1^2-(4-(methyl-d3)piperazin-1-yl)-5,7-dioxo-1^8,1^9,6^1,6^2,6^3,6^4,6^5,6^6-octahydro-1^5H,1^7H-8-oxa-1(13,15)-pyrido[3',2':7,8][1,5]oxazonino[5,6-a]indola-2(4,2)-thiazola-6(1,3)-pyridazinacycloundecaphane-4-yl)cyclopropane-1-carb oxamide]	8.82	9.68	8.57	7.99

The remaining lines, values ahead:

pIC50 [1]	pIC50 [2]	pIC50 (KRAS G12D-cRAF)	pIC50 (KRAS G12V-cRAF)	SMILES
7.47	8.09	7.66	7.06	CC1OCCCn2c(c3c4cc(ccc42)-c2csc(n2)CC(NC(=O)C24CC(C)(C2)C4)C(=O)N2CCCC(N2)C(=O)OCC(C)(C)C3)-c2cc(N3CCN(CC(F)(F)F)CC3)cnc21 [Example 39, 3-methyl-N-((1^5S,6^3S,4S,Z)-1^5,10,10-trimethyl-5,7-dioxo-1^2-(4-(2,2,2-trifluoroethyl)piperazin-1-yl)-1^8,1^9,6^1,6^2,6^3,6^4,6^5,6^6-octahydro-1^5H,1^7H-8-oxa-1(13,15)-pyrido[3',2':7,8][1,5]oxazonino[5,6-a]indola-2(4,2)-thiazola-6(1,3)-pyridazinacycloundecaphane-4-yl)bicyclo[1.1.1]pentane-1-carbo xamide]
9.10	9.96	8.50	8.02	CC1OCCCn2c(c3c4cc(ccc42)-c2csc(n2)CC(NC(=O)C2CC2C(F)F)C(=O)N2CCCC(N2)C(=O)OCC(C)(C)C3)-c2cc(N3CCN(C)CC3)cnc21 [Example 81, (1S,2S)-2-(difluoromethyl)-N-((1^5S,6^3S,4S,Z)-1^5,10,10-trimethyl-1^2-(4-methylpiperazin-1-yl)-5,7-dioxo-1^8,1^9,6^1,6^2,6^3,6^4,6^5,6^6-octahydro-1^5H,1^7H-8-oxa-1(13,15)-pyrido[3',2':7,8][1,5]oxazonino[5,6-a]indola-2(4,2)-thiazola-6(1,3)-pyridazinacycloundecaphane-4-yl)cyclopropane-1-carboxamide]
8.69	9.48	8.54	7.92	CC1OCCCn2c(c3c4cc(ccc42)-c2csc(n2)CC(NC(=O)C2CC2C(F)F)C(=O)N2CCCC(N2)C(=O)OCC(C)(C)C3)-c2cc(N3CCOCC3)cnc21 [Example 83, (1S,2S)-2-(difluoromethyl)-N-((1^5S,6^3S,4S,Z)-1^5,10,10-trimethyl-1^2-morpholino-5,7-dioxo-1^8,1^9, 6^1,6^2,6^3,6^4,6^56-octahydro-1^5H,1^7H-8-oxa-1(13,15)-pyrido[3',2':7,8][1,5]oxazonino[5,6-a]indola-2(4,2)-thiazola-6(1,3)-pyridazinacycloundecaphane-4-yl)cyclopropane-1-carboxamide]
8.94	9.72	8.56	8.04	CCN1CCN(c2cnc3c(c2)-c2c4c5cc(ccc5n2CCCOC3C)-c2csc(n2)CC(NC(=O)C2CC2C(F)F)C(=O)N2CCCC(N2)C(=O)OCC(C)(C)C4)CC1 [Example 84, (1S,2S)-2-(difluoromethyl)-N-((1^5S,6^3S,4S,Z)-1^2-(4-ethylpiperazin-1-yl)-1^5,10,10-trimethyl-5,7-dioxo-1^8,1^9,6^1,6^2,6^3,6^4,6^5,6^6-octahydro-1^5H,1^7H-8-oxa-1(13,15)-pyrido[3',2':7,8][1,5]oxazonino[5,6-a]indola-2(4,2)-thiazola-6(1,3)-pyridazinacycloundecaphane-4-yl)cyclopropane-1-carboxamide]
